Laboratory results published in patent publication US20240216458A1, “Composition for the prevention, improvement or treatment of allergic diseases comprising an extract of Cassia mimosoides L. as an active ingredient” (KOREA INSTITUTE OF SCIENCE AND TECHNOLOGY, priority 2022, published 2024).

Columns and labels:
Assay type in all cases: cell-based, rat
Settings in all cases: compound 20 μM
[1] = test system: RBL-2H3 mast cells; experiment: TNF-α production secreted by mast cells (ELISA)
Experimental: (§1) First, RBL-2H3 mast cells were seeded at 2×10^5 cells/well in a 24-well microtiter plate containing Dulbecco's Modified Eagle's Media (DMEM) medium containing 2.5% fetal bovine serum, and cultured until they grew to 80% confluence. Afterwards, ethanol extract of Cassia mimosoides L. prepared in <Example 1> was added to serum-free DMEM medium at a concentration of 20 μg/ml and 40 μg/ml, respectively, and mast cells were cultured for 24 hours. After treating mast cells with DNP-BSA for 30 minutes, the cell culture fluid was collected, centrifuged, and only the supernatant was harvested. The amount of TNF-α in the supernatant was confirmed using an ELISA kit (Invitrogen, USA).
Mast cells were cultured in the same manner as in Example 4, and then treated with 17 compounds isolated in Example 12 at a concentration of 20 μM, respectively.

[2] = test system: RBL-2H3 mast cells; experiment: Interleukin-4 production secreted by mast cells (ELISA)
Experimental: as §1, with “interleukin-4” for “TNF-α”
Mast cells were cultured in the same manner as in Example 5, and then treated with 17 compounds isolated in Example 12 at a concentration of 20 μM, respectively.

[3] = test system: RBL-2H3 mast cells; experiment: Histamine production secreted by mast cells (EIA kit)
Experimental: as §1, with “histamine” for “TNF-α”, “EIA” for “ELISA”, “(Bertin Pharma, France).” for “(Invitrogen, USA).”
Mast cells were cultured in the same manner as in Example 3, and then treated with 17 compounds isolated in Example 12 at a concentration of 20 μM, respectively.

[4] = test system: RBL-2H3 mast cells; experiment: Prostaglandin E2 production secreted by mast cells (ELISA)
Experimental: as §1, with “prostaglandin E2” for “TNF-α”, “(R&D systems,” for “(Invitrogen,”
Mast cells were cultured in the same manner as in Example 6, and then treated with 17 compounds isolated in Example 12 at a concentration of 20 μM, respectively.

[5] = test system: RBL-2H3 mast cells; experiment: Secretion of allergens in mast cell granules (beta-hexosaminidase activity, degranulation) after DNP-BSA stimulation
Experimental: First, rat basophilic leukocyte (RBL-2H3, American Type Culture Collection, USA) mast cells were cultured in minimal medium containing antibiotics and 10% bovine serum. After culturing, the cells were collected with trypsin, placed in a 24-well microtiter plate at 2×10^5 cells/well, and cultured until they grew to 80% confluence. The medium was replaced with PIPES buffer (25 mM PIPES, PH 7.2, 159 mM NaCl, 5 mM KCl, 0.4 mM MgCl2, 1 mM CaCl2), 5.6 mM glucose, and 0.1% BSA) for the cultured cells, and then ethanol extract of Cassia mimosoides L. prepared in <Example 1> was added to concentrations of 20 μg/ml and 40 μg/ml, respectively, and cultured for 1 hour. […]
The degree of secretion of allergy-inducing substances was determined by measuring the activity of beta-hexosaminidase, a marker of degranulation secreted in the medium, and the activity of beta-hexosaminidase was determined as the amount of p-nitrophenol liberated from p-nitrophenyl-acetyl-β-D-glucosaminide (Funaba M. et al., Cell Biol. Int., 27:879-85, 2003). […]
The degree of allergen secretion was determined by measuring the activity of β-hexosaminidase, a marker of degranulation, which was secreted in the medium, and the activity of β-hexosaminidase was determined as the amount of p-nitrophenyl liberated from p-nitrophenyl-acetyl-β-D-glucosaminide (Funaba M. et al, Cell Biol. Int., 27:879-85, 2003). […]

Oc1ccc2c(c1)OC(c1ccc(O)c(O)c1)C[C@H]2c1c(O)cc(O)c2c1OC(c1ccc(O)c(O)c1)[C@@H](O)C2 (stereo partly drawn) [KA-1, (2S)-3′,4′,7-trihydroxyflavan-(4 β - >8)-catechin]
excellent efficacy: production of TNF-α secreted by mast cells [1] | production of interleukin-4 secreted by mast cells [2] | production of histamine secreted by mast cells [3] | production of prostaglandin E2 secreted by mast cells [4] | mast cell degranulation [5]

Oc1ccc2c(c1)OC(c1ccc(O)c(O)c1)CC2c1c(O)cc(O)c2c1OC(c1ccc(O)c(O)c1)[C@@H](O)C2 (stereo partly drawn) [KA-2, (2S)-3′,4′,7-trihydroxyflavan-(4 α - >8)-catechin]
excellent efficacy: production of TNF-α secreted by mast cells [1] | production of interleukin-4 secreted by mast cells [2] | production of histamine secreted by mast cells [3] | production of prostaglandin E2 secreted by mast cells [4] | mast cell degranulation [5]
